Data published in paper PMC4532832, “GABA signalling modulates plant growth by directly regulating the activity of plant-specific anion transporters” (Nature Communications, 2015).
Numbering of substitutions follows the chain as printed. Where two headings read alike, the source gives them in different places. One block for each compound: values may come before it.

Columns and labels:
Assay type in all cases: cell-based
[1] = biological target: T1, VvALMT9 (Vitis vinifera, UniProt F6GTK1, Y237C); assay: two-electrode voltage clamp, X. laevis oocytes; settings: read-out: half-maximal effective concentration
T1 construct: gene VIT_17s0000g03850; full-length, untagged as told; cRNA from pGEMHE-DEST in Xenopus laevis oocytes
T1 sequence (F6GTK1 entry or part of it Y237C): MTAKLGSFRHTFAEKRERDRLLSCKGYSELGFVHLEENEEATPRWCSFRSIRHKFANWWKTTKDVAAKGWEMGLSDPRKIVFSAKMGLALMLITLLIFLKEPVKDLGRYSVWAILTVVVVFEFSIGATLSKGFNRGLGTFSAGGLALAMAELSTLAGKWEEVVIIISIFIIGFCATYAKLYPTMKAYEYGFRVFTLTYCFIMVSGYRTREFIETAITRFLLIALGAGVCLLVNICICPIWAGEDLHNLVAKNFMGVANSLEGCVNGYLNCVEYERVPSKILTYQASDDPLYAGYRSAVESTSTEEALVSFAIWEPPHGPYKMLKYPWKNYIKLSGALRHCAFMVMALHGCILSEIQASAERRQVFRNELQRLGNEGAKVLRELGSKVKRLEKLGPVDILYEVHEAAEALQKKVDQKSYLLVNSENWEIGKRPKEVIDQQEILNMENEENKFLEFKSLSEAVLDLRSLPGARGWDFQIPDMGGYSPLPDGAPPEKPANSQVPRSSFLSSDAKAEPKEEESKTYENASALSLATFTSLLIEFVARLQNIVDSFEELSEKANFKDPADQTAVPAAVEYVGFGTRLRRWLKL

[2] = biological target: T2, TaALMT1 (Triticum aestivum, UniProt Q76LB1); assay: two-electrode voltage clamp, X. laevis oocytes
T2 construct: gene ALMT1; full-length, untagged as told; cRNA from pGEMHE-DEST in Xenopus laevis oocytes; BY2 tobacco line for flux
T2 sequence (Q76LB1 1-459): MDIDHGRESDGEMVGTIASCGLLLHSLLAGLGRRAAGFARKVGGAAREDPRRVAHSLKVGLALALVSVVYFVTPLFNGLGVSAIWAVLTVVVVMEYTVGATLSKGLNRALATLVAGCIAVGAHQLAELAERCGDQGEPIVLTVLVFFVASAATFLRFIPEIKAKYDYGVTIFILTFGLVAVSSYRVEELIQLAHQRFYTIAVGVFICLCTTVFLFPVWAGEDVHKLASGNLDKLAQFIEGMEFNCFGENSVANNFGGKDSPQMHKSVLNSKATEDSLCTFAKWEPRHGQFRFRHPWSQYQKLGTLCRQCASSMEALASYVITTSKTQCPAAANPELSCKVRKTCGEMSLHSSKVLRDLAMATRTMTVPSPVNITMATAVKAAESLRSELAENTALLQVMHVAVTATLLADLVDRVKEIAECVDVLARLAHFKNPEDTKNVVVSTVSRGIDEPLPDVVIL

[3] = biological target: T3, TaALMT1 (Triticum aestivum, UniProt Q76LB1, F213C/F215C); assay: two-electrode voltage clamp, X. laevis oocytes; settings: read-out: half-maximal effective concentration
T3 construct: gene ALMT1; full-length, untagged as told; cRNA from pGEMHE-DEST in Xenopus laevis oocytes; BY2 tobacco line for flux
T3 sequence (Q76LB1 1-459 F213C/F215C): T2 sequence (Q76LB1 1-459) with F213C, F215C

[4] = biological target: T4, TaALMT1 (Triticum aestivum, UniProt Q76LB1, F215C); assay: two-electrode voltage clamp, X. laevis oocytes; settings: 10 mM malate-activated current, 100 μM GABA
T4 construct: gene ALMT1; full-length, untagged as told; cRNA from pGEMHE-DEST in Xenopus laevis oocytes; BY2 tobacco line for flux
T4 sequence (Q76LB1 1-459 F215C): T2 sequence (Q76LB1 1-459) with F215C

[5] = biological target: T5, VvALMT9 (Vitis vinifera, UniProt F6GTK1); assay: two-electrode voltage clamp, X. laevis oocytes; settings: read-out: half-maximal effective concentration
T5 construct: gene VIT_17s0000g03850; full-length, untagged as told; cRNA from pGEMHE-DEST in Xenopus laevis oocytes
T5 sequence (F6GTK1 1-588): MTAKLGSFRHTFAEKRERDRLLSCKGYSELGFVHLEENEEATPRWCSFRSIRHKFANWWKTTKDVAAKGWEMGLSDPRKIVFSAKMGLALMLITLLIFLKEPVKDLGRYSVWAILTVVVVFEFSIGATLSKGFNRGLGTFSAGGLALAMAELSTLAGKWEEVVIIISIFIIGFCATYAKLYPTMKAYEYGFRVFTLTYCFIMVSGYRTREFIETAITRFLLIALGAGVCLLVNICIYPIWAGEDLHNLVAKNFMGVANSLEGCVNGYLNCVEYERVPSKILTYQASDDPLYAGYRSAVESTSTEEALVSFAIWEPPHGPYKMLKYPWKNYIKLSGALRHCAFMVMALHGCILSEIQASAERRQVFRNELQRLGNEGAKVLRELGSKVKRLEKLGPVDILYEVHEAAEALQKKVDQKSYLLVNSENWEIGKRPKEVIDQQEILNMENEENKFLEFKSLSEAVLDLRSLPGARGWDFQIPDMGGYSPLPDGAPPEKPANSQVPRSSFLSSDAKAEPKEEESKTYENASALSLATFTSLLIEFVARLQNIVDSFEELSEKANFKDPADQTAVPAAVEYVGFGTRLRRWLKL

[6] = biological target: T2, TaALMT1; assay: two-electrode voltage clamp in oocytes; malate efflux from TaALMT1-expressing BY2 cells; settings: 100 μM bicuculline against muscimol or GABA; competitive antagonist

EC50 [1]: 697 µM
EC50 ([2]; read-out: half-maximal effective concentration): 3.2 µM
EC50 [3]: > 1000 µM
EC50 [5]: 5 µM
SMILES: NCCCC(=O)O [GABA]
inhibition at 100 μM [4]: whereas inward current through TaALMT1^F215C was reduced by GABA

SMILES: CN1CCc2cc3c(cc2[C@H]1[C@@H]1OC(=O)c2c1ccc1c2OCO1)OCO3 [bicuculline]
two-electrode voltage clamp in oocytes; malate efflux from TaALMT1-expressing BY [6]: bicuculline appears to act as a competitive antagonist to GABA action for TaALMT1

SMILES: NCc1cc(=O)[nH]o1 [muscimol]
EC50 [2]: 5.5 µM
